Assay results: patent US20180271863A1, “TARGETING P2 PURINERGIC RECEPTORS TO TREAT HEPATOCELLULAR CARCINOMA (HCC)” (Baylor College of Medicine, priority 2015, published 2018)
“Also recorded” adds a separate entry of the source.

Key:
Hep3B cells = test: BrdU incorporation (proliferation) in Hep3B cells; format: cell-based, human
Experimental: Light microscopic images (10X) of BrdU immunostained cells are also shown. Hep3B cells were maintained in serum-free conditions for 24 hours and were pre-treated with AF-353 (5 μM) for 30 minutes, prior to treatment with ATP (100 μM) for 24 hours. BrdU-positive cells are expressed as a percentage of total number of cells. Data represents mean±SEM, n=3-6, *p<0.05 vs untreated (un). To determine whether P2 purinergic receptor activation influences HCC cell proliferation, BrdU incorporation was assessed in HCC cells maintained in SFM for 24 hours and treated with ATP for 24 hours. […] Hep3B, 46%; SNU-387, 47% and PLC/PRF/5, 24%), identifying nucleotides as liver cancer cell mitogens (FIG. 7A). Normal human primary hepatocytes isolated from healthy adults (no known history of HCC) in suspension or freshly-frozen prior to shipment (Cryoport Systems, CA) were purchased from Triangle Research Labs, NC. […] Formalin-fixed and paraffin embedded liver sections from HCC patients were analyzed by immunohistochemistry with anti-P2X3 antibody (Abcam, Cambridge, Mass.). […] BrdU positive cells were counted and expressed as a percentage of the total number of cells in ten randomly selected high-power fields (20×) per coverslips.

human hepatocytes = test: Western blotting of cyclin proteins in human hepatocytes; format: cell-based
Experimental: Normal human primary hepatocytes isolated from healthy adults (no known history of HCC) in suspension or freshly-frozen prior to shipment (Cryoport Systems, CA) were purchased from Triangle Research Labs, NC. Fresh hepatocytes were plated on collagen-coated tissue culture plates or glass coverslips in Williams E complete media with additives (10% fetal bovine serum, 2 mM glutamine, […] insulin, 4 ng/ml glucagon, […] transferrin, 2.5 ng/ml sodium selenite, 10,000 U/ml penicillin, […] streptomycin, 50 g/ml gentamycin) for 3 h to ensure hepatocyte adherence to plates. Subsequently, hepatocytes were maintained in Williams E minimal media free from serum and growth factors for 24 h prior to treatment. Human hepatocellular carcinoma derived Huh7, and Hep3B, were cultured in Minimum Essential Medium Eagle (MEM); SNU-387 was cultured in Roswell Park Memorial Institute (RPMI) medium and PLC/PRF/5 cultured in Dulbecco's Modified Eagle's medium (DMEM). All maintenance culture media were supplemented with 10% fetal bovine serum (FBS), L-Glutamine (2 mM), penicillin (100 units/ml) and streptomycin ([…]) at 37° C. and 5% CO2. Cells were maintained in serum free media (containing 2 mM L-Glutamine, 100 units/ml penicillin and ([…])) streptomycin for 24 h prior to treatment. Total protein extracts were obtained by homogenizing cells in total lysis buffer (50 mM Tris-HCl, pH 7.5, 0.5 M NaCl, 2 mM EGTA, 2 mM EDTA, 1.0% Triton X-100, 0.25% Deoxycholate, 1 m/ml pepstatin, 1.0 m/ml leupeptin, 1.0 m/ml aprotinin, 1.0 mM phenylmethylsulfonyl fluoride, 1.0 mM Dithiothreitol, 2.0 mM activated Na3VO4, and 2.0 mM NaF) and centrifuging at 14,000 rpm for 10 min (4° C.). Equal amounts of total proteins as determined by BCA protein Assay (Pierce, Rockford, Ill.) were analyzed by Western blotting. Blots were probed with antibody specific for a-tubulin or GAPDH to ensure equal loading of proteins in each lane.

Huh7 cells [1] = test: Western blotting for survivin in Huh7 cells; format: cell-based, human
Description: Total protein extracts were obtained by homogenizing cells in total lysis buffer and analyzed by Western blotting as described recently (Oncotarget 2015; 6:41162-41179). Next, Applicants tested whether extracellular nucleotide treatment may have an effect on YAP target genes important in hepatocellular carcinoma. […] Moreover, P2X3 antagonist (AF-353) pretreatment attenuated ATP mediated induction of survivin (FIG. 20G).

Huh7 cells [2] = test: Western blotting for hippo pathway phosphorylation (Mst1/2, LATS, Yap) in Huh7 cells; format: cell-based, human; details: for Mst1/2 phosphorylation: Huh7, serum free 24 hours, as early as 5 minutes, sustained at 4 hours; for induction of Yap phosphorylation: Huh7, 12 h treatment
Experimental: Total protein extracts were obtained by homogenizing cells in total lysis buffer and analyzed by Western blotting as described recently (Oncotarget 2015; 6:41162-41179). […] Therefore, Applicants performed in vitro studies to test whether activation of P2 purinergic receptors may affect the hippo pathway and its downstream effectors. Huh7 cells—human derived hepatocellular carcinoma cells—maintained in serum free media for 24 hours—were treated with P2 purinergic receptor agonists. […] ADP treatment alone was also sufficient to induce LATs phosphorylation (2 h-1.7 fold, 4 h-1.5 fold) (FIG. 20B). […] Hippo kinases Mst1/2 and Lats1/2 work through a phosphorylation cascade to phosphorylate Yap, thereby retaining Yap in the cytoplasm. In spite of nucleotide-mediated Mst1/2 and Lats phosphorylation, ATP, ADP and ATPγS treatment was individually insufficient to induce Yap phosphorylation. […] Similarly, ATP treatment alone increased nuclear YAP protein expression (1.7 fold) (FIG. 20D).

SMILES | effect on ATP-mediated induction of BrdU incorporation (Hep3B cells; AF-353 5 μM pre-treatment 30 minutes, ATP 100 μM 24 hours) | effect on ATP-mediated induction of cyclin D3 and cyclin E expression (human hepatocytes; AF-353 5 μM pre-treatment, ATP 24 h) | effect on ATP mediated induction of survivin (Huh7 cells [1]; AF-353 pretreatment) | proliferation (BrdU incorporation) induced by ATP (Hep3B cells; SFM 24 hours, ATP 24 hours) | Mst1/2 phosphorylation (Huh7 cells [2]) | induction of Yap phosphorylation (Huh7 cells [2]) | cyclin D3 protein expression (human hepatocytes; ATPγS 24 h) | cyclin E protein expression (human hepatocytes; ATPγS 24 h) | survivin protein expression (Huh7 cells [1]; ATPγS treatment alone)
COc1cc(C(C)C)c(Oc2cnc(N)nc2N)cc1I [AF-353] | completely attenuated; also recorded: attenuates | completely attenuated | attenuated |  |  |  |  |  | 
Nc1ncnc2c1ncn2[C@@H]1O[C@H](COP(=O)(O)OP(=O)(O)OP(=O)(O)O)[C@@H](O)[C@H]1O [ATP] |  |  |  | 46% | significantly induced | insufficient |  |  | 
Nc1ncnc2c1ncn2[C@@H]1O[C@H](COP(=O)(O)OP(=O)(O)OP(O)(O)=S)[C@@H](O)[C@H]1O [ATPγS] |  |  |  |  | significantly induced | insufficient | 2.0 fold | 2.0 fold | 1.8 fold
